How the values were obtained:
paclitaxel-treated rats [1] = assay: Paclitaxel-induced mechanical allodynia (von Frey test) after i.v. administration; type: in vivo, rat; conditions: single acute administration 1 mg/kg i.v., adult male Sprague Dawley rats, 0-75 min after injection (FIG. 1)
Description: Each animal was placed in a chamber with a mesh metal floor covered by a plastic dome that enabled the animal to walk freely, but not to jump. The mechanical stimulus was then delivered in the mid-plantar skin of left hind paw using an electronic von Frey apparatus (37400 Dynamic Plantar Aesthesiometer, Ugo Basile, Comerio, Varese, Italy). The cut-off was set at 50 g, while the increasing force rate (ramp duration) was set at 20 s. In the single administration protocol, pain threshold measurements have been performed before (pre-dose) and at regular intervals after treatment. In the repeated treatment protocol, the pre-test value was measured 13 h after the last administration; afterward the animals received a new administration and measures were performed at the described times. Results are expressed in […] and represent the mean±S.E.M. of mechanical thresholds.
(§1) Paclitaxel (2 mg/kg i.p.) was administered on days 1, 3, 5 and 8. Test compounds were dissolved in saline and administered intravenously at the dose of 1 mg/kg to adult male Sprague-Dawley rats (Charles River, Italy, 220-250 g weight). Data were obtained at 0-75 minutes after injection and are expressed as the mean±s.e.m. of six animals. *P<0.05 and **<0.01 vs vehicle+paclitaxel treated rats; °P<0.05 and ^°°P<0.01 vs. NT24336 (R) treated group. […] *P<0.05 and **<0.01 vss vehicle+paclitaxel treated rats.

paclitaxel-treated rats [2] = assay: Paclitaxel-induced peripheral sensory neuropathy model, hyperalgesia (paw pressure) after i.v. administration; type: in vivo, rat
Description: Results are expressed as the minimum dose (via the indicated route) at which a statistically-significant difference is observed when compared to time-matched injured rats receiving a vehicle administration by the same route. An analysis of variance, ANOVA, followed by Fisher's protected least significant difference procedure for post hoc comparison, was used to verify significance between two means of hyperalgesic behavioral results from the Randall & Selitto apparatus paw pressure test (“anti-hyperalgesia”) or from the Von Frey test (“mechanical allodynia”) or from the Cold Plate test (“cold allodynia”). P values 0.05 were considered significant. This definition applies to any doses specified herein as inhibiting “in a statistically significant manner”.
Paw mechanical sensitivity was determined using a Randall & Selitto apparatus (Randall and Selitto, 1957) exerting a force that increases at constant rate (32 g/s). The stimulus causing paw withdrawal was evaluated before and at different times after treatment. Results represent the mean of mechanical thresholds for paw withdrawal expressed as grams. To avoid possible damage to the rat paw the maximum applied force was set at 240 g. In the single administration protocol, paw pressure tests were performed before (pre-dose) and at regular intervals after treatment.
as §1

Structure (SMILES) | Effect on paclitaxel-induced mechanical allodynia (von Frey test) (paclitaxel-treated rats [1]; 1 mg/kg) | Lowest dose at which paclitaxel-induced hyperalgesia is inhibited in a statistically significant manner (P < 0.05) (paclitaxel-treated rats [2]; 15 min after administration) | Lowest dose at which paclitaxel-induced hyperalgesia is inhibited in a statistically significant manner (P < 0.05) (paclitaxel-treated rats [2]; 30 min after administration) | Lowest dose at which paclitaxel-induced hyperalgesia is inhibited in a statistically significant manner (P < 0.05) (paclitaxel-treated rats [2]; 45 min after administration) | Effect on paclitaxel-induced mechanical allodynia (von Frey test) (paclitaxel-treated rats [1])
O=C1CCC2CN(S(=O)(=O)c3ccccc3F)CCN12 (racemic) [R:S mixture 1:1, 2-(2-fluorobenzenesulfonyl)hexahydropyrrolo[1,2-a]pyrazin-6-one] | marginally effective | – | – | – | –
O=C1CCC2CN(S(=O)(=O)c3ccccc3F)CCN12 (stereo not drawn) [NT-24781, 2-(2-fluorobenzenesulfonyl)hexahydropyrrolo[1,2-a]pyrazin-6-one] | – | >3 mg/kg | >3 mg/kg | >3 mg/kg | almost inactive
O=C1CCC2CN(S(=O)(=O)c3ccccc3F)CCN12 (racemic) [R:S mixture 3:1, 2-(2-fluorobenzenesulfonyl)hexahydropyrrolo[1,2-a]pyrazin-6-one] | the most active one | – | – | – | –

Source: patent US20220047587A1, “SYNERGISTIC COMPOSITIONS COMPRISING R-2-(SUBSTITUTED-SULFONYL)-HEXAHYDRO-PYRROLO[1,2-A]PYRAZIN-6(2H)-ONES AND S-2-(SUBSTITUTED-SULFONYL)-HEXAHYDRO-PYRROLO[1,2-A]PYRAZIN-6(2H)-ONES IN A NON-RACEMIC RATIO” (Metys Pharmaceuticals AG, priority 2018, published 2022)
